The source made the active and inactive calls. No cut-off for these calls is given here.
Columns and labels:
SW13 = test: Cytotoxicity against human SW13 cells assessed as reduction in cell viability incubated for 48 hrs by MTT assay; conditions: SW13, 48 h
LoVo = test: Cytotoxicity against human LoVo cells assessed as reduction in cell viability incubated for 48 hrs by MTT assay
SW480 [1] = test: Downregulation of BCL2 level in human SW480 cells at 1.25 to 10 uM measured after 12 hrs by immunoblot analysis; assay type: functional, cell-based; conditions: dose 1.25-10 µM
SW-620 [2] = test: Upregulation of cleaved caspase 3 level in human SW620 cells at 1.25 to 10 uM measured after 12 hrs by immunoblot analysis; assay type: functional, cell-based; conditions: dose 1.25-10 µM
SW480 [3] = test: Upregulation of cleaved caspase 3 level in human SW480 cells at 1.25 to 10 uM measured after 12 hrs by immunoblot analysis; assay type: functional, cell-based; conditions: dose 1.25-10 µM
SW-620 [4] = test: Downregulation of KDM4B level in human SW620 cells measured after 12 hrs by immunoblot analysis; assay type: functional, cell-based; conditions: dose 1.25-10 µM
SW-620 [5] = test: Downregulation of KDM4B level in human SW620 cells at 10 uM measured after 12 hrs in presence of tert-butyl ((S)-1-((2S,4R)-4-hydroxy-2-((4-(4-methylthiazol-5-yl)benzyl)carbamoyl)pyrrolidin-1-yl)-3,3-dimethyl-1-oxobutan-2-yl)carbamate by immunoblot analysis; assay type: functional, cell-based
SW-620 [6] = test: Downregulation of PROX1 level in human SW620 cells at 10 uM measured after 12 hrs in presence of tert-butyl ((S)-1-((2S,4R)-4-hydroxy-2-((4-(4-methylthiazol-5-yl)benzyl)carbamoyl)pyrrolidin-1-yl)-3,3-dimethyl-1-oxobutan-2-yl)carbamate by immunoblot analysis; assay type: functional, cell-based
SW-620 [7] = test: Induction of cell cycle arrest in human SW620 cells assessed as accumulation of cells at G0/G1 phase incubated for 12 hrs by flow cytometry based analysis; assay type: functional; conditions: dose 5-10 µM
[8] = Downregulation of ATM level in human SW620 cells transfected with NC shRNA by immunoblot analysis; assay type: functional, SW-620
[9] = Downregulation of ATM level in human SW480 cells transfected with NC shRNA by immunoblot analysis; assay type: functional
[10] = Downregulation of ATM level in human SW480 cells transfected with ATM shRNA by immunoblot analysis; assay type: functional
[11] = Downregulation of ATM level in human HCT-116 cells transfected with NC shRNA by immunoblot analysis; assay type: functional
SW480 [12] = test: Cytotoxicity against human SW480 cells transfected with NC shRNA assessed as reduction in cell viability measured after 48 hrs by MTT assay; conditions: SW480, 48 h
SW480 [13] = test: Cytotoxicity against human SW480 cells transfected with ATM shRNA assessed as reduction in cell viability measured after 48 hrs by MTT assay; conditions: SW480, 48 h
HCT-116 = test: Cytotoxicity against human HCT-116 cells transfected with ATM shRNA assessed as reduction in cell viability measured after 48 hrs by MTT assay; conditions: HCT-116, 48 h
SW-620 [14] = test: Induction of DNA damage in human SW620 cells assessed as gamma-H2AX accumulation incubated for 12 hrs by immunoblot analysis; assay type: functional, cell-based; conditions: dose 2.5-10 µM
K562 [15] = test: Induction of DNA damage in human K562 cells assessed as gamma-H2AX accumulation at 20 uM incubated for 8 hrs by immunoblot analysis; assay type: functional, cell-based
SW480 [16] = test: Potentiation of AZD6738 induced DNA damage in human SW480 cells assessed as gamma-H2AX accumulation in nuclei at 5 uM incubated for 12 hrs by immunohistochemical staining based analysis; assay type: functional, cell-based
K562 [17] = test: Potentiation of AZD6738 induced DNA damage in human K562 cells assessed as gamma-H2AX accumulation in nuclei at 5 uM incubated for 12 hrs by immunohistochemical staining based analysis; assay type: functional, cell-based
[18] = Toxicity in Balb/c nude mouse assessed as drug tolerance at 15 mg/kg/day administered for 14 days in presence of AZD6738; assay type: organism-based; conditions: in vivo, 336 h, time 14 day
SW-620 [19] = test: Antitumor activity against human SW620 cells xenografted in Balb/c nude mouse model assessed as decrease in BCL2 protein level at 15 mg/kg/day measured after 14 days by Western blot analysis; assay type: functional, organism-based; conditions: time 14.0 day
SW-620 [20] = test: Antitumor activity against human SW620 cells xenografted in Balb/c nude mouse model assessed as decrease in cleaved caspase 3 level at 15 mg/kg/day measured after 14 days by Western blot analysis; assay type: functional, organism-based; conditions: time 14.0 day
SW-620 [21] = test: Antitumor activity against human SW620 cells xenografted in Balb/c nude mouse model assessed as necrosis at 15 mg/kg/day measured after 14 days by H and E staining based analysis; assay type: functional, organism-based; conditions: time 14.0 day
SW-620 [22] = test: Antitumor activity against human SW620 cells xenografted in Balb/c nude mouse model assessed as inflammatory cell infiltration at 15 mg/kg/day measured after 14 days by H and E staining based analysis; assay type: functional, organism-based; conditions: time 14.0 day
SW-620 [23] = test: Antitumor activity against human SW620 cells xenografted in Balb/c nude mouse model assessed as fibrosis at 15 mg/kg/day measured after 14 days by H and E staining based analysis; assay type: functional, organism-based; conditions: time 14.0 day
SW-620 [24] = test: Downregulation of ATM level in human SW620 cells at 10 uM by immunoblot analysis; assay type: functional, cell-based; conditions: time <= 24.0 hrs, TDE = time-dependent effect

Cc1ncsc1-c1ccc(CNC(=O)[C@@H]2C[C@@H](O)CN2C(=O)[C@@H](NC(=O)CCCCCn2cc(CCCN3C(=O)/C(=C4/C(=O)Nc5ccccc54)c4ccccc43)nn2)C(C)(C)C)cc1
IC50 (SW13): 3.31 µM | IC50 (LoVo): 6.73 µM | Activity (SW480 [1]): Active | Activity (SW-620 [2]): Active | Activity (SW480 [3]): Active | Activity (SW-620 [4]): Dose-Dependent Effect | Activity (SW-620 [5]): Active | Activity (SW-620 [6]): Active | Activity (SW-620 [7]): Dose-Dependent Effect | Activity [8]: 100% | Activity [9]: 100% | Activity [10]: 23% | Activity [11]: 100% | IC50 (SW480 [12]): 2.59 µM | IC50 (SW480 [13]): 12.1 µM | IC50 (HCT-116): 26.4 µM | Activity (SW-620 [14]): Dose-Dependent Effect | Activity (K562 [15]): Active | Activity (SW480 [16]): Active | Activity (K562 [17]): Active | Activity [18]: Non-Toxic | Activity (SW-620 [19]): Active | Activity (SW-620 [20]): Active | Activity (SW-620 [21]): Active | Activity (SW-620 [22]): Active | Activity (SW-620 [23]): Active | Activity (SW-620 [24]): Tde

Source: ChEMBL document CHEMBL5506015, “Discovery of a Meisoindigo-Derived PROTAC as the ATM Degrader: Revolutionizing Colorectal Cancer Therapy via Synthetic Lethality with ATR Inhibitors” (J Med Chem, 2024)
